The values below come from the NIST ThermoML archive (doi:10.1021/je900042q).

± gives the expanded uncertainty stated by the source.

The nature of data set [1]: refractive index (Na D-line) (dimensionless). To be noted: 298.15 K; 101.33 kPa; Liquid; Standard Abbe refractometry.
For data set [2] the following is noted: Liquid; for mass density: 298.15 K, 101.33 kPa; for vapor or sublimation pressure: Ebulliometric method (Recirculating still).

In general, refractive index refers to a measure of how strongly the sample bends light. Usually mass density stands for the mass of a sample divided by its volume. What is called vapor or sublimation pressure is the equilibrium pressure above the liquid or solid. As to `CCCCOC(=O)CC` [butyl propanoate], the refractive index in data set [1] turned out to be 1.3992 ± 0.0005. For the same compound, the mass density in data set [2] is given as 870.88 ± 0.65 kg/m3. Moreover, the “vapor or sublimation pressure” value in data set [2] (418.69 K) was determined as 101.3 ± 0.3 kPa.
As to `CC(C)OC(C)C` [diisopropyl ether], in data set [1], the refractive index was 1.3652 ± 0.0005. Also, in data set [2], the mass density stood at 718.32 ± 0.96 kg/m3. In data set [2] (341.49 K), the “vapor or sublimation pressure” value worked out at 101.3 ± 0.3 kPa.
Consider `CC(C)O` [propan-2-ol], for which, in data set [1], the refractive index is 1.3754 ± 0.0005. For the same compound, the mass density in data set [2] was 782.69 ± 0.24 kg/m3. In data set [2] (355.35 K), the “vapor or sublimation pressure” value is on record as 101.3 ± 0.2 kPa.
